ChEMBL document CHEMBL1201862, “PubChem BioAssay data set” (2004)
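These data come from cells grown in 96-well plates and exposed to compound for 48 hours at five concentrations. GI50 = concentration required for 50% inhibition of growth.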 Calls of active or inactive are those of the source. Rule as the data show it: active = GI50 up to about 1.1 µM and inactive = higher.

Key:
Assay in all cases: NCI tumour cell line growth inhibition, 48 h
HOP-92 = system: HOP-92
CAKI-1 = system: CAKI-1
HCC 2998 = system: HCC 2998
MDA-MB-435 = system: MDA-MB-435
OVCAR-5 = system: OVCAR-5
SF-295 = system: SF-295
SK-MEL-28 = system: SK-MEL-28
Hs-578T = system: Hs-578T
786-0 = system: 786-0
UACC-62 = system: UACC-62
EKVX = system: EKVX
DU-145 = system: DU-145
KM12 = system: KM12
SNB-75 = system: SNB-75
HCT-15 = system: HCT-15
U-251 = system: U-251
T47D = system: T47D
A549 = system: A549
LOX IMVI = system: LOX IMVI
Malme-3M = system: Malme-3M
IGROV-1 = system: IGROV-1
NCI-H522 = system: NCI-H522
SK-MEL-5 = system: SK-MEL-5
SW-620 = system: SW-620
TK-10 = system: TK-10
CCRF-CEM = system: CCRF-CEM
BT-549 = system: BT-549
UACC-257 = system: UACC-257
HL-60 = system: HL-60
ACHN = system: ACHN
SK-OV-3 = system: SK-OV-3
A498 = system: A498
NCI/ADR-RES = system: NCI/ADR-RES
MCF7 = system: MCF7
OVCAR-4 = system: OVCAR-4
HOP-62 = system: HOP-62
HCT-116 = system: HCT-116
NCI-H23 = system: NCI-H23
PC-3 = system: PC-3
OVCAR-3 = system: OVCAR-3
SR = system: SR
SF-539 = system: SF-539
SN12C = system: SN12C
COLO 205 = system: COLO 205
MOLT-4 = system: MOLT-4
SNB-19 = system: SNB-19
HT-29 = system: HT-29
OVCAR-8 = system: OVCAR-8
NCI-H460 = system: NCI-H460
MDA-MB-231 = system: MDA-MB-231
RXF 393 = system: RXF 393
K562 = system: K562
M14 = system: M14
NCI-H226 = system: NCI-H226
RPMI-8226 = system: RPMI-8226
MDA-N = system: MDA-N
SF-268 = system: SF-268

Cc1cc(S(=O)(=O)Nc2nc3cccnc3[nH]2)c(S)cc1Cl
GI50 (HOP-92): > 100 µM (inactive)
GI50 (CAKI-1): > 100 µM (inactive)
GI50 (HCC 2998): > 100 µM (inactive)
GI50 (MDA-MB-435): > 100 µM (inactive)
GI50 (OVCAR-5): > 100 µM (inactive)
GI50 (SF-295): 58.1 µM (inactive)
GI50 (SK-MEL-28): > 100 µM (inactive)
GI50 (Hs-578T): 74 µM (inactive)
GI50 (786-0): > 100 µM (inactive)
GI50 (UACC-62): 85.1 µM (inactive)
GI50 (EKVX): > 100 µM (inactive)
GI50 (DU-145): > 100 µM (inactive)
GI50 (KM12): > 100 µM (inactive)
GI50 (SNB-75): > 100 µM (inactive)
GI50 (HCT-15): 91 µM
GI50 (U-251): 63.2 µM (inactive)
GI50 (T47D): 46.8 µM (inactive)
GI50 (A549): 75 µM (inactive)
GI50 (LOX IMVI): 83 µM (inactive)
GI50 (Malme-3M): > 100 µM (inactive)
GI50 (IGROV-1): > 100 µM (inactive)
GI50 (NCI-H522): 70.5 µM (inactive)
GI50 (SK-MEL-5): 71.9 µM (inactive)
GI50 (SW-620): > 100 µM (inactive)
GI50 (TK-10): > 100 µM (inactive)
GI50 (CCRF-CEM): > 100 µM (inactive)
GI50 (BT-549): > 100 µM (inactive)
GI50 (UACC-257): > 100 µM (inactive)
GI50 (HL-60): > 100 µM (inactive)
GI50 (ACHN): > 100 µM (inactive)
GI50 (SK-OV-3): > 100 µM (inactive)
GI50 (A498): > 100 µM (inactive)
GI50 (NCI/ADR-RES): > 100 µM (inactive)
GI50 (MCF7): > 100 µM (inactive)
GI50 (OVCAR-4): 79.4 µM (inactive)
GI50 (HOP-62): > 100 µM (inactive)
GI50 (HCT-116): > 100 µM (inactive)
GI50 (NCI-H23): 97.5 µM (inactive)
GI50 (PC-3): 92.3 µM (inactive)
GI50 (OVCAR-3): > 100 µM (inactive)
GI50 (SR): > 100 µM (inactive)
GI50 (SF-539): > 100 µM (inactive)
GI50 (SN12C): > 100 µM (inactive)
GI50 (COLO 205): > 100 µM (inactive)
GI50 (MOLT-4): > 100 µM (inactive)
GI50 (SNB-19): 77.8 µM (inactive)
GI50 (HT-29): > 100 µM (inactive)
GI50 (OVCAR-8): > 100 µM (inactive)
GI50 (NCI-H460): 73.5 µM (inactive)
GI50 (MDA-MB-231): 45.3 µM (inactive)
GI50 (RXF 393): > 100 µM (inactive)
GI50 (K562): > 100 µM (inactive)
GI50 (M14): > 100 µM (inactive)
GI50 (NCI-H226): 52.2 µM (inactive)
GI50 (RPMI-8226): > 100 µM (inactive)
GI50 (MDA-N): > 100 µM (inactive)
GI50 (SF-268): 79.1 µM (inactive)
